One assay addresses T1, JAK1 (Homo sapiens, UniProt P23458).
T1 construct: purchased Thermo PV4774
Description: JAK1 enzymology experiment (HTRF KinEASE-TK). Particulars: JAK1 enzyme activity, 10 uM ATP, 19.76 nM JAk1, 30 min at 25° C., HTRF 665/615; read-out: Relative IC50. It is filed as biochemical. How it is done: JAK1 is a protein tyrosine kinase, and purchased from Thermo (Cat #PV4774). ATP was purchased from Thermo […] was purchased from Selleck (Cat #55001), and HTRF KinEASE-TK kit was purchased from Cisbio (Cat #62TKOPEC).
HTRF®KinEASE™-TK was a universal method to measure activity of tyrosine kinase by a substrate and a universal detection system. The reaction was performed in a 384-well plate (Greiner, Cat #784075), and the total reaction system was 20 ul. The reaction system mainly included a 1× kinase buffer solution, 5 mM MgCl2, 0.625 mM EGTA, 0.06 uM SEB, 1 mM DTT, 0.01% Brij-35, 1 uM TK-Sub-biotin and 10 uM ATP. The compounds prepared in Examples 1-8 and the control compound Oclacitinib were continuously diluted by DMSO to 10 concentration points, and then 100 nl was transferred to a test plate. After 19.76 nM JAk1 was added, the reaction started, 30 min after reaction at 25° C., a detection reagent was added to terminate the reaction (0.25×TK Antibody, 62.5 nM Streptavidin-XL665). After standing for 60 min at room temperature, FRET signal was read out on a Spark 10M or an envision plate reader. (HTRF 665/615=665 nm signal value/615 nm signal value).
665/615 signal ratio was converted to percentage inhibition. […]

For the next assay, the system named is Canine PBMC cells. The assay is described as follows: IL-2 and ConA induced proliferation of canine PBMC cells (flow cytometry, CD4+ population). It is filed as cell-based. Particulars: Canis lupus familiaris, CFSE stained, IL-2 and concanavalin A, 120 h, MFI of CD4+ population, read-out: Cell IC50. On the procedure: Recombinant canine IL-2 (Cys147Ser) protein was purchased from R&D (Cat #1815-CL-020/CF). Canine CD4 Alexa Fluor 647-conjugated antibody was purchased from R&D […] A from Canavalia ensiformis (Jack bean) was purchased from Sigma (Cat #C5275-5MG). Oclacitinib maleate was purchased from AbMole Bioscience (Cat #M5827). PBMC cells were purchased from AllCells (Cat #DPB-002).
Flow cytometry is a technology used for detecting and measuring physical and chemical characteristics of populations of cells or particles. Canine PBMC was collected and stained with CFSE, and then the cells (1×10*5 cells/well) were inoculated onto a 96-well plate and incubated for 1 h in a 5% CO2 incubator at 37° C. […] Afterwards, cells were collected and stained with canine CD4 Alexa Fluor 647-conjugated antibodies.
Samples containing cells were resuspended by a staining buffer and injected into a flow cytometry. […] When cells passed through laser beam, a detector detected the scattered light of the cells or particles. The front detector detected forward scatter (FS), multiple detectors placed on the side detected side scatter (SS); and a fluorescence detector detected fluorescence emitted by the stained cells or particles. […]
CD4^+ was circled from lymphocyte populations. MFI of the CD4^+ population was calculated. […]

For assay [1], the system named is pruritus caused by atopic dermatitis. Particulars: dogs, cited from earlier work.

The values below come from US12509463B2, “JAK inhibitor and preparation method therefor” (FELICAMED BIOTECHNOLOGY CO., LTD., priority 2019, dated 2025).

T1 sequence (P23458 866-1154 limits assumed): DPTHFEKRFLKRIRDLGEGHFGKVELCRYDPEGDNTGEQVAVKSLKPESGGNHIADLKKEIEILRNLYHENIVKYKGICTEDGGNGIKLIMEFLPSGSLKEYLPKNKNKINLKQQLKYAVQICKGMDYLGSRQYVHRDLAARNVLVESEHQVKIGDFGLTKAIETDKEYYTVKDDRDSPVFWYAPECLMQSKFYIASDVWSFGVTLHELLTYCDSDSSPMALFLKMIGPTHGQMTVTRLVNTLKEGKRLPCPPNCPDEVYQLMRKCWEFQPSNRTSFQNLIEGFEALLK

With `CNS(=O)(=O)C[C@H]1CC[C@H](N(C)c2ncnc3[nH]ccc23)CC1` [Oclacitinib], on JAK1, the half-maximal inhibitory concentration (IC50) was 0.0129 µM. For the same molecule, in the assay with Canine PBMC cells, the 50% inhibitory concentration (IC50) was determined as 0.447 µM. The “laboratory animals with more than 50% pruritus reaction relieved” value in assay [1] (on the 7th day of treatment) is given as “exceeding 70%”. For the same molecule, in assay [1] (oral 0.4-0.6 mg/kg twice a day), the “time to relieve itching” value is on record as at most 24 h; the “treatment of pruritus caused by atopic dermatitis” value was “safe and effective”.
